Experimental data published in US20030181376A1, “Control of crop pests & animal parasites through direct neuronal uptake” (priority 2000, published 2003).
Read-outs that look alike come from different tables or passages of the source.

Columns and labels:
Format in all cases: in vivo
[1] = test system: Heterodera glycines; assay: Behavioural bioassay: orientation of H. glycines juveniles to an attractant disc (root exudate) after pre-incubation; details: for EC50: read-out: concentration giving 50% reduction in attraction of H. glycines to an attractant
Experimental: This assay was modified from that used by Grundler et al (Parasitology 103, 149-155; 1991). Soybean plants were grown in pots containing perlite in a tropical glasshouse until the root system was well established. Plants were carefully washed free of the perlite in running water and then several plants were placed in 200 cm3 dH2O in a conical flask which was covered in foil to keep light off the roots and then incubated in a Sanyo plant growth cabinet (16 hr light 24° C., 8 hr dark 20° C.) for 48hrs. The root exudate was collected and filter sterilised through 0.45 μm syringe filter.
Agarose discs covered in either dH2O or root exudate were made as follows. Agarose (3 ml, 1.5% solution made in dH2O) was poured into 6 cm petri dishes and allowed to surface dry. One ml of root exudate or dH2O was pipetted onto the plates, the surface covered by swirling and then left to completely evaporate. A cork borer was used to cut out 6 mm discs from the plate.
The oxime carbamate nematicide Aldicarb was obtained by putting 1 g Temik (10G, Rhône-Poulenc), in 10 ml chloroform to dissociate the oxime carbamate from its inert carrier. After 1 hour particulate material was removed by centrifugation. 100, 10 or 1 μl aliquots of the chloroform/aldicarb solution were pipetted into 1.5 ml microtubes and left to evaporate in a fume hood. This leaves 1, 0.1 and 0.01 mg aldicarb respectively in each tube. Addition of 1 ml dH2O to these tubes provides solutions of […] respectively.
Aliquots of juveniles of H. glycines were incubated for 16 hours in a range of concentrations of aldicarb, or in peptides generated that recognise the same acetylcholinesterase (AChE) target as aldicarb (see example IV). The effect of different concentrations of aldicarb or peptides on chemoreception was measured. Control worms were incubated in either water or PBS for the peptide experiments.
Treated nematode juveniles (approximately 300) in small volumes (typically 20 μl) dH2O were placed in the centre of 3.5 cm diameter petri dishes containing 1.5 ml 1.5% agarose. After evaporation of the water the worms were left for 1 hour to randomly distribute over the plate. A root exudate and a water agarose test disc were placed onto the plate equally spaced (5 mm) from the centre. The plates were left for 1 hour at room temperature in the dark. The experiments were carried out in replicates of 8-10 per concentration of aldicarb or peptide assayed. Controls in which nematodes were not treated with any chemical or peptide mimetic were also used for each experimental day to obtain a 100% rate of attraction. This allowed measurements of the extent of chemoattraction mediated by a test compound on any day.
The number of worms under each disc was counted using a dissecting microscope. In control experiments typically 2-4 times as many worms were counted under the root exudate disc as were under the water control disc. The numbers of responders minus the number under the control disc was used to calculate a response. With ˜300 animals on the plate the difference was around 40-80. The difference between the numbers under the attractant and the control discs was used to define the maximum response on that day of experiments.
Various concentrations of these compounds were tested with a modified bioassay. The data sets were analysed using probit analysis within a standard statistical package (SPSS) installed on a personal computer. […] Even higher concentrations of aldicarb and both AChE binding peptides were needed to inhibit movement than required to disrupt chemoreception.
Freshly hatched H. glycines were incubated for 16 hours at room temperature in various concentrations of Levamisole. They were tested using the bioassay in example 3.

[2] = test system: Globodera pallida; assay: Behavioural bioassay: orientation of G. pallida to an attractant disc (50 mM ZnCl2) after pre-incubation; details: 16 h pre-treatment at 1.242×10^−8 M
Experimental: (§1) The number of worms under each disc was counted using a dissecting microscope. […] The numbers of responders minus the number under the control disc was used to calculate a response. […] The difference between the numbers under the attractant and the control discs was used to define the maximum response on that day of experiments.
(§2) 50 mM CaCl2 was used as an attractant with the agarose discs. Those assays were carried out at 27° C. […] The peptide was also tested against the potato cyst nematode Globodera pallida using the same methods as described for H. glycines. G. pallida was incubated for 16 h in a solution containing the constrained peptide at 1.242×10^−8 M at room temperature. […]

[3] = test system: Heterodera glycines and Globodera pallida; assay: Behavioural bioassay, pooled data of H. glycines and G. pallida after pre-incubation in levamisole mimetic peptide; details: 16 h pre-treatment at 1×10^−6 M; data of two species pooled; values>1 indicate a chemoreceptive response
Experimental: as §1, §2

[4] = incubation for 16 hours, probit analysis

Compound: c1ccc([C@H]2CN3CCSC3=N2)cc1 [Levamisole]
- signs of paralysis ([1]; 16 hours at room temperature in various concentrations): did not show any signs of paralysis
- inhibition of chemoreception ([1]; 16 hours at room temperature in various low concentrations, FIG. 5): inhibit chemoreception in a dose-dependent manner

Compound: CSINWRHHC [constrained 7 mer peptide]
- mean value ratio of nematodes under the disc with the attractant rather than without it ([2]; room temperature, bioassay at 20° C., 50 mM ZnCl2, values>1 indicate a chemoreceptive response): 0.77±0.08
- ratio of nematodes under attractant disc versus control disc, 3 hours after the start of the bioassay ([2]; 3 hours after start of the bioassay): 0.78±0.06
- EC50 [1, 4]: 2.16 nM

Compound: CNC(=O)O/N=C/C(C)(C)SC [aldicarb, Aldicarb]
- disruption of chemosensory attraction relative to paralysis ([1]; H. glycines, 16 hours incubation): disrupt chemosensory attraction completely at concentrations lower than those which cause paralysis
- EC50 ([1]; Heterodera glycines, 16 h): 0.0011 ± 0.00306 nM

Compound: SVSVGMKPSPRP [linear 12 mer peptide]
- EC50 [1, 4]: 3680 nM

Compound: CHNSHIRWC [control peptide]
- loss of chemoreception ([1]; incubation at 2 μM): no loss of chemoreception

Compound: CTTMHPRLC
- ratio of nematodes under attractant disc versus control disc, 3 hours after the start of the bioassay ([1]; H. glycines, 16 h pre-treatment at 1×10^−6 M, 3 hours after start of the bioassay): 1.24±0.11
- mean value ratio of nematodes under the disc with the attractant rather than without it [3]: 1.03±0.11
